# In patent US11969465B2, “Toxoplasma gondii vaccines and their use” (Alpha-O Peptides AG, priority 2016, dated 2024):
# Read-outs that look alike come from different tables or passages of the source.
# Assays:
# [1] = tested on: PBMC from T. gondii-seropositive HLA-A03 individuals; assay: IFN-γ ELISpot assay with human PBMC; type: cell-based; conditions: for IFN-γ-secreting spot formation: PBMC from Toxoplasma seropositive HLA-A03 individuals, compared to an irrelevant HLA-A*1101-restricted peptide
# Procedure: To determine which of these peptides would be recognized in the context of Toxoplasma infection, peripheral blood mononuclear cells (PBMC) from T. gondii-seropositive HLA-A03 individuals were tested for response to these peptides in pools or individually by using an IFN-γ ELISpot assay. Candidate peptides were considered immunogenic if they induced IFN-γ-secreting spot formation that was significant compared to an irrelevant HLA-A*1101-restricted peptide.
# The epitopes were linked together with N/K alanines or GPGPG (SEQ ID NO: 23) as linker, named as LO and AZ, respectively (FIG. 3A-B). […] Immunogenicity of the two proteins compared to the pool of the 5 individual A11-restricted CD8^+ T cell epitope peptides was tested in vitro.
# PBMC were obtained from individuals seropositive to T. gondii, and their HLA haplotype was determined.
# [2] = biological target: T1, TLR5 (Homo sapiens, UniProt O60602); type: cell-based; conditions: for TLR5 activity (SEAP expression): 0.01-1000 ng/ml, 24 hours
# T1 construct: expressed in transfected cells; host or cells: HEK 293 (stably co-transfected with TLR5 and NF-kB-driven SEAP reporter)
# [3] = Immune response to Tox-All in HLA transgenic mice; design: species or system HLA A2 and HLA A11 mice; conditions: mouse, in vivo
# From the text: The schematic diagrams of SAPN A11 (SEQ ID NO:27) in FIG. 17A 12e is similar to the schematic diagram of the more complex SAPN Tox-All (FIG. 17B). (FIG. 12f). […] Tox-All contains CD8 T cell eliciting epitopes by binding to HLA All, A2, and B7, PADRE a universal CD4 T cell eliciting epitope, protein domains that can elicit antibody (data not shown). Tox-All has the same scaffold flagellin that is shown for SAPN A11. […] Additional CD8 peptides that bind to other HLA molecules to broaden population coverage and CD4 peptides can be added in this complex SAPN. Additional proteins that elicit B cells can also be included in the SAPN. This allows us to tailor an immune response for each component of the immune system we wish to stimulate. The methods and approaches are those described for the A11 SAPN.
# T1 sequence (O60602 21-858): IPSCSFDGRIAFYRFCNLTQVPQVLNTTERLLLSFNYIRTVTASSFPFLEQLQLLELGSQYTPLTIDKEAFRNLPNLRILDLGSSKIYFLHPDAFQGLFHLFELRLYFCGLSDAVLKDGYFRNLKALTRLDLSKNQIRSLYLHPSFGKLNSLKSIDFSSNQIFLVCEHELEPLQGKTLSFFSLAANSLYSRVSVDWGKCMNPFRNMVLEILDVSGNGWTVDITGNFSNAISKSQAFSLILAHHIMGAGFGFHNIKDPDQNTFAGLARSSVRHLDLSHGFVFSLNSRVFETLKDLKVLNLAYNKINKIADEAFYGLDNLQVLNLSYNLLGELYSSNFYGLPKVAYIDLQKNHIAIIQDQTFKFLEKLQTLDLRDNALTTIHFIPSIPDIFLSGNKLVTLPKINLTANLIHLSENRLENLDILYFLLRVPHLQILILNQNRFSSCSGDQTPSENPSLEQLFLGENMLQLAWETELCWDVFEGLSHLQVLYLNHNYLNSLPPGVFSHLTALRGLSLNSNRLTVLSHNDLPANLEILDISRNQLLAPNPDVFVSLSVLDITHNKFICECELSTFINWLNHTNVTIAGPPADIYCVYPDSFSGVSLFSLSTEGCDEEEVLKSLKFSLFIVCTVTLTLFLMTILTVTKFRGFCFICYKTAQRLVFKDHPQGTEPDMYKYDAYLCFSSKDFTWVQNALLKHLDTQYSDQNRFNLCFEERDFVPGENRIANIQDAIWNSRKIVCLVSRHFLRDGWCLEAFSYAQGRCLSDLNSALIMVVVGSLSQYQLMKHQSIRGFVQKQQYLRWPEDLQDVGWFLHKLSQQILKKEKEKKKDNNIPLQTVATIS
molecule,measurement,setting,value
"Concanavalin A [Con A, reference compound]","IFN-γ ELISpot response, seropositive versus seronegative donors",[1]; PBMC of 3 seropositive and 3 seronegative HLA-A03 individuals,response of PBMC from both seronegative and seropositive donors
STFWPCLLR [SAG2C13-21],IFN-γ-secreting spot formation,[1],stimulated significant response
SSAYVFSVK [SRS52A250-258],IFN-γ-secreting spot formation,[1],stimulated significant response
AVVSLLRLLK [GRA589-98],IFN-γ-secreting spot formation,[1],stimulated significant response
"CD8-SAPN: self-assembling protein nanoparticle with five CD8+ epitopes and PADRE inserted into flagellin (protein, (1)..(14) optionally absent) MGDKHHHHHHHHHHKDGSDKGSWEEWNARWDEWENDWNDWREDWQAWRDDWARWRATWMGGRLLSRLERLERRNEELRRLLQLIRHENRMVLQFVRALSMQNAELERRLEELARGMAQVINTNSLSLLTQNNLNRSQSALGTAIERLSSGLRINSARDDAAGQAIANRFTANIRGLTQASRNANDGISIAQTTEGALNEINNNLQRVRELAVQSANSTNSQSDLDSIQAEITQRLNEIDRVSGQTQFNGVRVLAQDNTLTIQVGANDGETIDIDLRQINSQTLGLDQLNVQQEYESDDAVVSLLRLLKNAMLTAFFLRNAAAKSFKDILPKKAAASSAYVFSVKKAAAKFVAAWTLKAAAKSTFWPCLLRDSDSDTENPLQRIDAALAQVDALRSDLGAVQNRFNSAITNLGNTVNNLSEARSRIEDSDYATEVSNMSRAQILQQAGTSVLAQANQVPQNVLSLLR",TLR5 activity (SEAP expression),[2],significantly enhanced
same,TLR5 activity (SEAP expression),[2]; listed as SAPN,good stimulation
"Tox-All: SAPN with HLA A11, A2 and B7 CD8 epitopes, PADRE, antibody-eliciting domains and flagellin (protein, (1)..(14) optionally absent) MGDDHHHHHHHHHHWFMGVLVNSLQDITMGSLFFVQDFMIVSISLVQDGLAAAVVAVQDLPQFATAATRDSPASGRYIQQMLDQRCQEIAAELCQSGLRKMCVPSSRIVARNAVGITHQNTLQWRCFDTASLLESNQENNGVNCVDDCGHTIPCPGGVHRQNSNHATRHEILSKLVEEGVQRFCSPYQASANKYCNDKFPGTIARRSKGFGNNVEVAWRCYEKASLLYSVYAECASNCGTTWYCPGGRRGTSTELDKRHYTEEEGIRQAIGSVDSPCSEVEVCLPKDENPPLCLDESGQISRGSWEEWNARWDEWENDWNDWREDWQAWRDDWARWRATWMGGRLLSRLERLERRNEELRRLLQLIRHENRMVLQFVRALSMQNAELERRLEELARGMAQVINTNSLSLLTQNNLNRSQSALGTAIERLSSGLRINSARDDAAGQAIANRFTANIRGLTQASRNANDGISIAQTTEGALNEINNNLQRVRELAVQSANSTNSQSDLDSIQAEITQRLNEIDRVSGQTQFNGVRVLAQDNTLTIQVGANDGETIDIDLRQINSQTLGLDQLNVQQEYESDDAVVSLLRLLKNAMLTAFFLRNAAAKSFKDILPKKAAASSAYVFSVKKAAAKFVAAWTLKAAAKSTFWPCLLRDSDSDTENPLQRIDAALAQVDALRSDLGAVQNRFNSAITNLGNTVNNLSEARSRIEDSDYATEVSNMSRAQILQQAGTSVLAQANQVPQNVLSLLR",immune response,[3],stimulates an immune response
same,TLR5 stimulation,[2]; data not shown,stimulates TLR5
